According to US7678918B2, “Intermediates for imidazonaphthyridines” (3M Innovative Properties Company, priority 1997, dated 2010):

Experiments:
[1] = system: IFN; experiment: Cytokine Induction in Human Cells: interferon (IFN) secreted by PBMCs, A549/encephalomyocarditis bioassay; assay type: cell-based; conditions: 18 to 24 hours
Text: (§1) An in vitro human blood cell system was used to assess cytokine induction by compounds of the invention. Activity is based on the measurement of interferon and tumor necrosis factor (ℑ) (IFN and TNF, respectively) secreted into culture media as described by Testerman et. al. In “Cytokine Induction by the Immunomodulators Imiquimod and S-27609”, Journal of Leukocyte Biology, 58, 365-372 (September, 1995). Blood Cell Preparation for Culture
(§2) Whole blood is collected by venipuncture into EDTA vacutainer tubes from healthy human donors. Peripheral blood mononuclear cells (PBMCs) are separated from whole blood by Histopaque®-1077 (Sigma Chemicals, St. Louis, Mo.) density gradient centrifugation. The PBMCs are suspended at 1.5-2×10^6 cells/mL in RPMI 1640 medium containing 10% fetal bovine serum, 2 mM L-glutamine and 1% penicillin/streptomycin solution (RPMI complete). 1 mL portions of PBMC suspension are added to 24 well flat bottom sterile tissue culture plates.
(§3) The compounds are solubilized in dimethyl sulfoxide (DMSO). The DMSO concentration should not exceed a final concentration of 1% for addition to the culture wells. The compounds are generally tested in a concentration range of from 0.1 to 100 μM.
(§4) The solution of test compound is added to the wells containing 1 mL of PBMCs in media. The plates are covered with plastic lids, mixed gently and then incubated for 18 to 24 hours at 37° C. with a 5% carbon dioxide atmosphere.
(§5) Following incubation the plates are centrifuged for 5-10 minutes at 1000 rpm (˜200×g) at 4° C. The cell culture supernatant is removed with a sterile polypropylene pipet and transferred to a 2 mL sterile cryotube. Samples are maintained at −70° C. until analysis.
Interferon is determined by bioassay using A549 human lung carcinoma cells challenged with encephalomyocarditis. The details of the bioassay method have been described by G. L. Brennan and L. H. Kronenberg in “Automated Bioassay of Interferons in Micro-test Plates”, Biotechniques, June/July 78, 1983, incorporated herein by reference. Briefly stated the method is as follows: A549 cells are incubated with samples and standard interferon dilutions at 37° C. for 24 hours. The incubated cells are then infected with an inoculum of encephalomyocarditis virus. The infected cells are incubated for an additional 24 hours at 37° C. before quantifying for viral cytopathic effect. The viral cytopathic effect is quantified by staining followed by visual scoring of the plates. Results are expressed as alpha reference units/mL based on the value obtained for NIH Human Leukocyte IFN standard.

[2] = system: TNF; experiment: Cytokine Induction in Human Cells: tumor necrosis factor (TNF) secreted by PBMCs, ELISA; assay type: cell-based; conditions: 18 to 24 hours
Text: as §1, §2, §3, §4, §5
Tumor necrosis factor (ℑ) (TNF) concentration is determined using an ELISA kit available from Genzyme, Cambridge, Mass. The results are expressed as pg/mL.
Also: call rule not given here.

For CCCCc1nc2c(N)nc3cccnc3c2n1CCNC(=O)c1ccc(C#N)cc1 [Example 139], the IFN induction ([1]; Dose Concentration 1.0 μM) was “+”, the IFN induction ([1]; Dose Concentration 10.0 μM) was “+” and the IFN induction ([1]; Dose Concentration 100.0 μM) was “+”. The TNF induction ([2]; Dose Concentration 1.0 μM) was “−”, the TNF induction ([2]; Dose Concentration 10.0 μM) was “+” and the TNF induction ([2]; Dose Concentration 100.0 μM) was “+”.

With CCCCc1nc2c(N)nc3cccnc3c2n1CCNC(=O)c1c(C)cc(C)cc1C [Example 143] the IFN induction ([1]; Dose Concentration 1.0 μM) was “−”, the IFN induction ([1]; Dose Concentration 10.0 μM) was “+” and the IFN induction ([1]; Dose Concentration 100.0 μM) was “+”. For the same compound, the TNF induction ([2]; Dose Concentration 1.0 μM) was “−”, the TNF induction ([2]; Dose Concentration 10.0 μM) was “±” and the TNF induction ([2]; Dose Concentration 100.0 μM) was “−”.

For CCCCc1nc2c(N)nc3cccnc3c2n1CCNC(=O)c1ccccc1OC [Example 144], the IFN induction ([1]; Dose Concentration 0.1 μM) was “+”, the IFN induction ([1]; Dose Concentration 1.0 μM) was “+” and the IFN induction ([1]; Dose Concentration 10.0 μM) was “+”. The IFN induction ([1]; Dose Concentration 100.0 μM) was “+”, the TNF induction ([2]; Dose Concentration 0.1 μM) was “−” and the TNF induction ([2]; Dose Concentration 1.0 μM) was “+”. The TNF induction ([2]; Dose Concentration 10.0 μM) was “+” and the TNF induction ([2]; Dose Concentration 100.0 μM) was “+”.

In the case of CCCCc1nc2c(N)nc3cccnc3c2n1CCNC(=O)CCCCC(=O)OC [Example 145], the IFN induction ([1]; Dose Concentration 0.1 μM) is reported as “−”, the IFN induction ([1]; Dose Concentration 1.0 μM) is reported as “−” and the IFN induction ([1]; Dose Concentration 10.0 μM) is reported as “+”. The IFN induction ([1]; Dose Concentration 100.0 μM) was “+”, the TNF induction ([2]; Dose Concentration 0.1 μM) was “−” and the TNF induction ([2]; Dose Concentration 1.0 μM) was “+”. For the same compound, the TNF induction ([2]; Dose Concentration 10.0 μM) was “+” and the TNF induction ([2]; Dose Concentration 100.0 μM) was “+”.

With CCCCc1nc2c(N)nc3cccnc3c2n1CCNC(=O)c1ccc([N+](=O)[O-])o1 [Example 146] the IFN induction ([1]; Dose Concentration 0.1 μM) was “+”, the IFN induction ([1]; Dose Concentration 1.0 μM) was “+” and the IFN induction ([1]; Dose Concentration 10.0 μM) was “+”. For the same compound, the IFN induction ([1]; Dose Concentration 100.0 μM) was “−”, the TNF induction ([2]; Dose Concentration 0.1 μM) was “+” and the TNF induction ([2]; Dose Concentration 1.0 μM) was “+”. The TNF induction ([2]; Dose Concentration 10.0 μM) was “+” and the TNF induction ([2]; Dose Concentration 100.0 μM) was “+”.

For CCCCc1nc2c(N)nc3cccnc3c2n1CCNC(=O)c1cccnc1Cl [Example 147], the IFN induction ([1]; Dose Concentration 0.1 μM) was “−”, the IFN induction ([1]; Dose Concentration 1.0 μM) was “+” and the IFN induction ([1]; Dose Concentration 10.0 μM) was “+”. The IFN induction ([1]; Dose Concentration 100.0 μM) was “+”, the TNF induction ([2]; Dose Concentration 0.1 μM) was “−” and the TNF induction ([2]; Dose Concentration 1.0 μM) was “−”. The TNF induction ([2]; Dose Concentration 10.0 μM) was “+” and the TNF induction ([2]; Dose Concentration 100.0 μM) was “+”.

In the case of CCCCCCCOc1ccc(C(=O)NCCn2c(CCCC)nc3c(N)nc4cccnc4c32)cc1 [Example 149], the IFN induction ([1]; Dose Concentration 0.1 μM) is reported as “−”, the IFN induction ([1]; Dose Concentration 1.0 μM) is reported as “−” and the IFN induction ([1]; Dose Concentration 10.0 μM) is reported as “−”. The IFN induction ([1]; Dose Concentration 100.0 μM) was “−”, the TNF induction ([2]; Dose Concentration 0.1 μM) was “−” and the TNF induction ([2]; Dose Concentration 1.0 μM) was “−”. The TNF induction ([2]; Dose Concentration 10.0 μM) was “−” and the TNF induction ([2]; Dose Concentration 100.0 μM) was “−”.

For CCCCc1nc2c(N)nc3cccnc3c2n1CCNC(=O)c1ccc(C(=O)OC)cc1 [Example 150], the IFN induction ([1]; Dose Concentration 0.1 μM) was “−”, the IFN induction ([1]; Dose Concentration 1.0 μM) was “−” and the IFN induction ([1]; Dose Concentration 10.0 μM) was “+”. The IFN induction ([1]; Dose Concentration 100.0 μM) was “+”, the TNF induction ([2]; Dose Concentration 0.1 μM) was “−” and the TNF induction ([2]; Dose Concentration 1.0 μM) was “−”. For the same compound, the TNF induction ([2]; Dose Concentration 10.0 μM) was “+” and the TNF induction ([2]; Dose Concentration 100.0 μM) was “+”.

For CCCCc1nc2c(N)nc3cccnc3c2n1CCNC(=O)Cc1ccc(OC)cc1 [Example 152], the IFN induction ([1]; Dose Concentration 0.1 μM) was “−”, the IFN induction ([1]; Dose Concentration 1.0 μM) was “−” and the IFN induction ([1]; Dose Concentration 10.0 μM) was “+”. The IFN induction ([1]; Dose Concentration 100.0 μM) was “+”, the TNF induction ([2]; Dose Concentration 0.1 μM) was “−” and the TNF induction ([2]; Dose Concentration 1.0 μM) was “−”. For the same compound, the TNF induction ([2]; Dose Concentration 10.0 μM) was “+” and the TNF induction ([2]; Dose Concentration 100.0 μM) was “+”.

For CCCCc1nc2c(N)nc3cccnc3c2n1CCCCNC(=O)c1cccc(Br)c1 [Example 153], the IFN induction ([1]; Dose Concentration 0.1 μM) was “−”, the IFN induction ([1]; Dose Concentration 1.0 μM) was “+” and the IFN induction ([1]; Dose Concentration 10.0 μM) was “+”. The IFN induction ([1]; Dose Concentration 100.0 μM) was “−”, the TNF induction ([2]; Dose Concentration 0.1 μM) was “−” and the TNF induction ([2]; Dose Concentration 1.0 μM) was “+”. The TNF induction ([2]; Dose Concentration 10.0 μM) was “+” and the TNF induction ([2]; Dose Concentration 100.0 μM) was “−”.

For CCCCc1nc2c(N)nc3cccnc3c2n1CCCCNC(=O)C1(c2ccc(Cl)cc2)CCCC1 [Example 155], the IFN induction ([1]; Dose Concentration 0.1 μM) was “−”, the IFN induction ([1]; Dose Concentration 1.0 μM) was “+” and the IFN induction ([1]; Dose Concentration 10.0 μM) was “+”. The IFN induction ([1]; Dose Concentration 100.0 μM) was “+”, the TNF induction ([2]; Dose Concentration 0.1 μM) was “−” and the TNF induction ([2]; Dose Concentration 1.0 μM) was “−”. For the same compound, the TNF induction ([2]; Dose Concentration 10.0 μM) was “+” and the TNF induction ([2]; Dose Concentration 100.0 μM) was “+”.

In the case of CCCCc1nc2c(N)nc3cccnc3c2n1CCCCNC(=O)COCc1ccccc1 [Example 157], the IFN induction ([1]; Dose Concentration 0.1 μM) is reported as “+”, the IFN induction ([1]; Dose Concentration 1.0 μM) is reported as “+” and the IFN induction ([1]; Dose Concentration 10.0 μM) is reported as “+”. For the same compound, the IFN induction ([1]; Dose Concentration 100.0 μM) was “−”, the TNF induction ([2]; Dose Concentration 0.1 μM) was “−” and the TNF induction ([2]; Dose Concentration 1.0 μM) was “−”. The TNF induction ([2]; Dose Concentration 10.0 μM) was “+” and the TNF induction ([2]; Dose Concentration 100.0 μM) was “−”.

With CCCCc1nc2c(N)nc3cccnc3c2n1CCCCNC(=O)CCCCCCCCC(=O)OC [Example 158] the IFN induction ([1]; Dose Concentration 0.1 μM) was “−”, the IFN induction ([1]; Dose Concentration 1.0 μM) was “+” and the IFN induction ([1]; Dose Concentration 10.0 μM) was “+”. For the same compound, the IFN induction ([1]; Dose Concentration 100.0 μM) was “+”, the TNF induction ([2]; Dose Concentration 0.1 μM) was “−” and the TNF induction ([2]; Dose Concentration 1.0 μM) was “−”. For the same compound, the TNF induction ([2]; Dose Concentration 10.0 μM) was “+” and the TNF induction ([2]; Dose Concentration 100.0 μM) was “−”.

CCCCc1nc2c(N)nc3cccnc3c2n1CCCCNC(=O)CC1CCCC1 [Example 160] was tested, and the IFN induction ([1]; Dose Concentration 0.1 μM) was “+”, the IFN induction ([1]; Dose Concentration 1.0 μM) was “+” and the IFN induction ([1]; Dose Concentration 10.0 μM) was “+”. The IFN induction ([1]; Dose Concentration 100.0 μM) was “−”, the TNF induction ([2]; Dose Concentration 0.1 μM) was “−” and the TNF induction ([2]; Dose Concentration 1.0 μM) was “+”. The TNF induction ([2]; Dose Concentration 10.0 μM) was “+” and the TNF induction ([2]; Dose Concentration 100.0 μM) was “−”.
